These results are taken from patent US6727264B1 (Synaptic Pharmaceutical Corporation, priority 2001, dated 2004).

rat MCH-1, sequence (P97639 whole entry): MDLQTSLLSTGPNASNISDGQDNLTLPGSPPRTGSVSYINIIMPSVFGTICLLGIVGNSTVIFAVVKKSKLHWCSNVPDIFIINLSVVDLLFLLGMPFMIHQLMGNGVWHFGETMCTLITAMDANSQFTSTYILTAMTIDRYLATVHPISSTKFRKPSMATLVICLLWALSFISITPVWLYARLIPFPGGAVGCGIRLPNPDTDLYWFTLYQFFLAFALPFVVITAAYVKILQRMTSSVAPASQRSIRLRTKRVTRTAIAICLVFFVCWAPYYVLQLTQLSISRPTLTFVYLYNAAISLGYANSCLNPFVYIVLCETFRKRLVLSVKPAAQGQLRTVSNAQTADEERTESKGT

The test addresses rat MCH-1 (Rattus norvegicus, UniProt P97639). Kind of test: Radioligand binding assay at cloned rat MCH1 receptor ([3H] Compound A). Conditions: cloned rat MCH1 receptor, membranes from Peakr293 cells, 0.08 nM [3H] Compound A; read-out: Ki (nM) rMCH1. More on the design: host or cells: Peak rapid 293 (Peakr293) cells, transient calcium phosphate transfection, membranes.
For `CC(C)C(=O)Nc1cccc(C2CCN(CCC(Oc3ccc(Br)cc3)c3ccc4c(c3)CCC4)CC2)c1` (stereo not drawn) [Example 165, N-(3-{1-[3-(4- BROMOPHENOXY)-3-(2,3-DIHYDRO-1H-INDEN-5-YL)PROPYL]-4-PIPERIDINYL}PHENYL)-2-METHYLPROPANAMIDE], the Ki (commonly a dissociation constant, usually derived from enzyme kinetics or from competition with a known ligand) was determined as 6.2 nM. Then `CC(=O)c1cccc(OC(CCN2CCC(c3cccc(NC(=O)C(C)C)c3)CC2)c2ccc(Cl)cc2)c1` (stereo not drawn) [Example 166], with 7.7 nM. On to `COc1ccc(OC(CCN2CCC(c3cccc(NC(=O)C(C)C)c3)CC2)c2ccc(OC)cc2)cc1` (stereo not drawn) [Example 167], for which the Ki was determined as 80.4 nM. As for `CC(C)C(=O)Nc1cccc(C2CCN(CCC(Oc3ccc(Cl)cc3)c3ccc4c(c3)CCC4)CC2)c1` (stereo not drawn) [Example 168], the Ki was 7 nM. Regarding `CC(=O)c1ccccc1OC(CCN1CCC(c2cccc(NC(=O)C(C)C)c2)CC1)c1ccc(Cl)cc1` (stereo not drawn) [Example 169], the Ki is 7.7 nM. Then `COc1ccc(OC(CCN2CCC(c3cccc(NC(=O)C(C)C)c3)CC2)c2ccc(Br)cc2)cc1` (stereo not drawn) [Example 170], with 3 nM; and `CC(C)C(=O)Nc1cccc(C2CCN(CCC(Oc3ccc(Br)cc3)c3ccc(Cl)cc3)CC2)c1` (stereo not drawn) [Example 171], with 3.7 nM. Next, `CC(C)C(=O)Nc1cccc(C2CCN(CCC(Oc3ccc(Cl)cc3)c3ccc(Cl)cc3)CC2)c1` (stereo not drawn) [Example 172]: 3 nM; `COc1ccc(C(CCN2CCC(c3cccc(NC(=O)C(C)C)c3)CC2)Oc2ccccc2)cc1` (stereo not drawn) [Example 173, N-(3-{1-[3-(4- METHOXYPHENYL)-3-PHENOXYPROPYL]-4-PIPERIDINYL}PHENYL)-2-METHYLPROPANAMIDE]: 112 nM. Next, `CC(C)C(=O)Nc1cccc(C2CCN(CCC(Oc3ccccc3)c3ccc(F)cc3)CC2)c1` (stereo not drawn) [Example 174]: 17 nM; `CC(=O)c1ccccc1OC(CCN1CCC(c2cccc(NC(=O)C(C)C)c2)CC1)c1ccc(F)cc1` (stereo not drawn) [Example 175]: 16.2 nM; `CC(=O)c1cccc(OC(CCN2CCC(c3cccc(NC(=O)C(C)C)c3)CC2)c2ccc(F)cc2)c1` (stereo not drawn) [Example 176]: 11.8 nM. `COc1ccc(OC(CCN2CCC(c3cccc(NC(=O)C(C)C)c3)CC2)c2ccc(F)cc2)cc1` (stereo not drawn) [Example 177]: the Ki was determined as 6.8 nM.

In the case of `COc1ccc(C(CCN2CCC(c3cccc(NC(=O)C(C)C)c3)CC2)Oc2ccc(Cl)cc2)cc1` (stereo not drawn) [Example 178], the Ki came out at 119 nM. Next, `COc1ccc(C(CCN2CCC(c3cccc(NC(=O)C(C)C)c3)CC2)Oc2cccc(C(C)=O)c2)cc1` (stereo not drawn) [Example 179]: 82.3 nM; `CC(C)C(=O)Nc1cccc(C2CCN(CCC(Oc3ccccc3)c3ccc(Cl)cc3)CC2)c1` (stereo not drawn) [Example 180]: 9.7 nM. For `COc1ccc(C(CCN2CCC(c3cccc(NC(=O)C(C)C)c3)CC2)Oc2ccc(Br)cc2)cc1` (stereo not drawn) [Example 181], the Ki turned out to be 91.9 nM. Then `COc1ccc(C(CCN2CCC(c3cccc(NC(=O)C(C)C)c3)CC2)Oc2ccc(C(F)(F)F)cc2)cc1` (stereo not drawn) [Example 182], with 101 nM. For `CC(C)C(=O)Nc1cccc(C2CCN(CCC(Oc3ccc(F)cc3)c3ccc(Cl)cc3)CC2)c1` (stereo not drawn) [Example 183], the Ki was determined as 4 nM. For the compound `COc1ccc(C(CCN2CCC(c3cccc(NC(=O)C(C)C)c3)CC2)Oc2ccc(F)cc2)cc1` (stereo not drawn) [Example 184], the Ki worked out at 105 nM. Consider `COc1ccc(C(CCN2CCC(c3cccc(NC(=O)C(C)C)c3)CC2)Oc2ccccc2C(C)=O)cc1` (stereo not drawn) [Example 185], for which the Ki turned out to be 20.6 nM.

As to `CC(C)C(=O)Nc1cccc(C2CCN(CCC(Oc3ccc(C(F)(F)F)cc3)c3ccc(Cl)cc3)CC2)c1` (stereo not drawn) [Example 186], the Ki turned out to be 4.9 nM. Then `CC(=O)c1cccc(O[C@@H](CCN2CCC(c3cc(NC(=O)C(C)C)ccc3C)CC2)c2ccccc2)c1` [Example 187], with 15.6 nM; and `CC(C)CCOc1ccc2ccccc2c1CN1CCC(c2cccc(NC(=O)C(C)C)c2)CC1` [Example 188], with 531 nM; and `CCCCOc1ccc2ccccc2c1CN1CCC(c2cccc(NC(=O)C(C)C)c2)CC1` [Example 189], with 438 nM.

In the case of `CC(C)C(=O)Nc1cccc(C2CCN(Cc3c(OCc4ccc(C#N)cc4)ccc4ccccc34)CC2)c1` [Example 190], the Ki came out at 436 nM. As to `CC(C)C(=O)Nc1cccc(C2CCN(Cc3c(OCC#N)ccc4ccccc34)CC2)c1` [Example 191], the Ki is 649 nM. In the case of `CC(C)C(=O)Nc1cccc(C2CCN(Cc3c(OCc4cccc(Cl)c4)ccc4ccccc34)CC2)c1` [Example 192], the Ki turned out to be 80.5 nM. In the case of `CC(C)CCOc1ccc(CN2CCC(c3cccc(NC(=O)C(C)C)c3)CC2)c2ccccc12` [Example 195], the Ki worked out at 106 nM. Then `COc1ccc(Oc2ccc(CN3CCC(c4cccc(NC(=O)C(C)C)c4)CC3)cc2)cc1` [Example 196], with 35.2 nM.

On to `CCCOc1ccc(CN2CCC(c3cccc(NC(=O)C(C)C)c3)CC2)c2ccccc12` [Example 197], for which the Ki amounted to 63.1 nM. For the compound `CC(C)C(=O)Nc1cccc(C2CCN(C(C)c3csc(-c4ccccc4)n3)CC2)c1` (stereo not drawn) [Example 201], the Ki was 996 nM. Then `Cc1nn(-c2ccccc2)c(Cl)c1CN1CCC(c2cccc(NC(=O)C(C)C)c2)CC1` [Example 202], with 155 nM. Next, `CC(C)C(=O)Nc1cccc(C2CCN(Cc3c[nH]c(-c4ccccc4)n3)CC2)c1` [Example 203]: 79.6 nM. Next, `CC(C)C(=O)Nc1cccc(C2CCN(Cc3c(Br)cnn3Cc3ccc(Cl)cc3)CC2)c1` [Example 204]: 39.8 nM; `CC(C)C(=O)Nc1cccc(C2CCN(Cc3cccc(Oc4ccccc4)c3)CC2)c1` [Example 205]: 28 nM; `CC(C)C(=O)Nc1cccc(C2CCN(Cc3cccc(Oc4ccc(Cl)c(Cl)c4)c3)CC2)c1` [Example 206]: 17.7 nM. Take `CC(C)C(=O)Nc1cccc(C2CCN(Cc3cccc(Oc4cc(Cl)cc(Cl)c4)c3)CC2)c1` [Example 207, N-(3-{1-[3-(3,5-dichlorophenoxy)benzyl]-4-piperidinyl}phenyl)-2-methylpropanamide]: the Ki is 137 nM. As for `Cc1ccc(Oc2cccc(CN3CCC(c4cccc(NC(=O)C(C)C)c4)CC3)c2)cc1` [Example 208], the Ki worked out at 30.8 nM. As for `CC(C)C(=O)Nc1cccc(C2CCN(Cc3cccc(Oc4cccc(C(F)(F)F)c4)c3)CC2)c1` [Example 209], the Ki stood at 64.8 nM. Then `CC(C)C(=O)Nc1cccc(C2CCN(Cc3cccc(Oc4ccc(Cl)cc4)c3)CC2)c1` [Example 210], with 23.3 nM; and `CC(C)C(=O)Nc1cccc(C2CCN(Cc3cccc(N(C)C)c3)CC2)c1` [Example 211], with 111 nM. Next, `COc1ccc(Oc2cccc(CN3CCC(c4cccc(NC(=O)C(C)C)c4)CC3)c2)cc1` [Example 212]: 43 nM. For the compound `CC(C)C(=O)Nc1cccc(C2CCN(Cc3cccc(Oc4ccc(C(C)(C)C)cc4)c3)CC2)c1` [Example 213], the Ki was 519 nM.

In the case of `CC(C)C(=O)Nc1cccc(C2CCN(Cc3ccc(N4CCCCC4)c([N+](=O)[O-])c3)CC2)c1` [Example 214], the Ki was found to be 56.3 nM. Regarding `Cc1csc2sc(CN3CCC(c4cccc(NC(=O)C(C)C)c4)CC3)c(C)c12` [Example 215, N-(3-{1-[(3,4- DIMETHYLTHIENO[2,3-B]THIEN-2-YL)METHYL]-4-PIPERIDINYL}PHENYL)-2-METHYLPROPANAMIDE], the Ki was found to be 283 nM. `CC(C)C(=O)Nc1cccc(C2CCN(Cc3c[nH]nc3-c3ccc(C(F)(F)F)cc3)CC2)c1` [Example 216]: the Ki was found to be 818 nM.

As for `CC(C)C(=O)Nc1cccc(C2CCN(Cc3ccc(-n4cncn4)cc3)CC2)c1` [Example 217], the Ki is 300 nM. For `Cc1c(CN2CCC(c3cccc(NC(=O)C(C)C)c3)CC2)cnn1-c1ccccc1` [Example 218], the Ki turned out to be 126 nM. Next, `CC(C)C(=O)Nc1cccc(C2CCN(Cc3ccc(N4CCOCC4)c([N+](=O)[O-])c3)CC2)c1` [Example 219]: 68.8 nM; `CC(C)C(=O)Nc1cccc(C2CCN(Cc3ccc(-c4ccc(C(F)(F)F)cc4Cl)o3)CC2)c1` [Example 220]: 159 nM; `CCOC(=O)c1c(CN2CCC(c3cccc(NC(=O)C(C)C)c3)CC2)c(C)n(-c2ccccc2)c1C` [Example 221, ETHYL 4-({4-[3-(ISOBUTYRYLAMINO)PHENYL]-1-PIPERIDINYL}METHYL)-2,5-DIMETHYL-1-PHENYL-1H-PYRROLE-3-CARBOXYLATE]: 546 nM.

On to `CCOC(=O)c1cc(-c2ccc(Cl)cc2)oc1CN1CCC(c2cccc(NC(=O)C(C)C)c2)CC1` [Example 222, ETHYL 5-(4-CHLOROPHENYL)-2-({4-[3-(ISOBUTYRYLAMINO)PHENYL]-1-PIPERIDINYL}METHYL)-3-FUROATE], for which the Ki worked out at 152 nM. Then `CC(C)C(=O)Nc1cccc(C2CCN(Cc3ccc4c(c3)OCCO4)CC2)c1` [Example 223], with 318 nM; and `CC(C)C(=O)Nc1cccc(C2CCN(Cc3ccc(Oc4ccccc4)nc3)CC2)c1` [Example 224], with 48 nM. Then `CC(C)C(=O)Nc1cccc(C2CCN(Cc3ccc(-c4ccccn4)s3)CC2)c1` [Example 225], with 214 nM; and `CC(C)C(=O)Nc1cccc(C2CCN(Cc3ccc(-c4cc(C(F)(F)F)nn4C)s3)CC2)c1` [Example 226], with 239 nM; and `CC(C)C(=O)Nc1cccc(C2CCN(Cc3cn(S(=O)(=O)c4ccccc4)c4ccccc34)CC2)c1` [Example 227], with 262 nM. With `Cc1c(CN2CCC(c3cccc(NC(=O)C(C)C)c3)CC2)c(=O)n(-c2ccccc2)n1C` [Example 228], the Ki stood at 841 nM. Then `CC(C)C(=O)Nc1cccc(C2CCN(Cc3ccc(-c4nc(C(C)(C)C)cs4)cc3)CC2)c1` [Example 229], with 885 nM; and `Cc1nc(-c2ccccc2)ncc1CN1CCC(c2cccc(NC(=O)C(C)C)c2)CC1` [Example 231], with 596 nM; and `CC(C)C(=O)Nc1cccc(C2CCN(Cc3ccc4nsnc4c3)CC2)c1` [Example 232], with 431 nM. Consider `CC(C)C(=O)Nc1cccc(C2CCN(Cc3ccc(-c4ccccc4)s3)CC2)c1` [Example 233], for which the inhibition constant (Ki) came to 125 nM.
